The text below walks through data of ChEMBL document CHEMBL1201862, “PubChem BioAssay data set” (2004).

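Step 1: Grow cells in 96-well plates. Step 2: Expose to compound for 48 hours at 5 concentrations. Step 3: Interpolate endpoints linearly; if unreached, use highest concentration. GI50 = concentration required for 50% inhibition of growth.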 Active and inactive are the calls of the source. Rule as the data show it: active = GI50 up to about 1.1 µM and inactive = higher.

Some test systems named below: RXF 393; LXFL 529; SNB-75; ACHN; UACC-257; NCI/ADR-RES; SNB-19; BT-549; NCI-H460; CCRF-CEM; MDA-MB-231; PC-3; HL-60; A498; M14; MOLT-4; SK-MEL-2; SR; OVCAR-8; MDA-MB-435.
What all share (assay): NCI-60 cell line screen, 48 h

Turning to `N#Cc1c(-c2ccc(Cl)cc2)c(-c2ccc(Cl)cc2)nn(CCOC(=O)CCC(=O)O)c1=O`, the GI50 with RXF 393 was 0.327 µM (active); in the assay on LXFL 529, 1.03 µM (active); in the assay with SNB-75 it was 0.193 µM (active); in the assay with ACHN it was 1.45 µM (inactive); in the assay on UACC-257, 9.64 µM (inactive); in the assay with NCI/ADR-RES, 1.32 µM (inactive). Further, the GI50 with SNB-19 is 2.65 µM (inactive); in the assay on BT-549, 11.9 µM (inactive); in the assay with NCI-H460, 0.807 µM (active); with CCRF-CEM it was 0.48 µM (active); in the assay on MDA-MB-231 it was 2.65 µM (inactive); in the assay on PC-3, 0.423 µM (active). Also, the GI50 in the assay on HL-60 is 0.339 µM (active); with A498, 0.652 µM (active); with M14, 0.399 µM (active); with MOLT-4, 0.566 µM (active); with SK-MEL-2, 0.221 µM (active); in the assay on SR, 0.291 µM (active). The figures for the GI50 in the assay with OVCAR-8 and with MDA-MB-435 were 1.02 µM (active) and 77.3 nM (active), respectively.

With `Cc1cc2c(cc1C)[n+]([O-])c(C(=O)CC(=O)C(=O)Nc1ccccc1C)c(C)[n+]2[O-]`, the GI50 in the assay on RXF 393 is > 100 µM (inactive); in the assay on LXFL 529, 84.7 µM (inactive); in the assay on SNB-75 it was > 100 µM (inactive); with ACHN, > 100 µM (inactive); with UACC-257, > 100 µM (inactive); in the assay with SNB-19, > 100 µM (inactive). Moreover, the GI50 in the assay with NCI-H460 was 80.5 µM (inactive); in the assay on CCRF-CEM, 40.7 µM (inactive); with HL-60 it was 62.8 µM (inactive); in the assay on A498 it was > 100 µM (inactive); in the assay on M14, > 100 µM (inactive); in the assay on MOLT-4 it was > 100 µM (inactive). The GI50 is > 100 µM (inactive) with SK-MEL-2, 38 µM (inactive) in the assay with SR and > 100 µM (inactive) in the assay with OVCAR-8.

As for `Cc1ccc(NC(=O)CC/C(CC(=O)C(C)(C)C)=N/NC(=O)C(N)=O)cc1C`, the GI50 in the assay on RXF 393, with LXFL 529, in the assay with SNB-75, in the assay on ACHN, in the assay with UACC-257 and in the assay on SNB-19 was > 100 µM (inactive) throughout. Besides, the GI50 with NCI-H460, with CCRF-CEM, with HL-60, in the assay with A498, with M14 and in the assay with MOLT-4 was > 100 µM (inactive) throughout. Further, the GI50 in the assay with SK-MEL-2, in the assay on SR and in the assay with OVCAR-8 was > 100 µM (inactive) throughout.

Take `O=C(N/C(=C/c1cccc([N+](=O)[O-])c1)c1nc2cc(Cl)ccc2[nH]1)c1ccccc1`: the GI50 in the assay on RXF 393 was 12.4 µM (inactive); in the assay with LXFL 529, 12.6 µM (inactive); in the assay on SNB-75, 19.2 µM (inactive); with ACHN it was 11.3 µM (inactive); with UACC-257, 43.8 µM (inactive); in the assay with SNB-19, 36.3 µM (inactive). The GI50 is 10.4 µM (inactive) in the assay with NCI-H460; 1.07 µM (active) in the assay on CCRF-CEM; 1.99 µM (inactive) with HL-60; 13 µM (inactive) in the assay with A498; 20.7 µM (inactive) with M14; 3.83 µM (inactive) in the assay on MOLT-4. Also, the GI50 in the assay on SK-MEL-2 is 16.1 µM (inactive); in the assay on SR, 3.61 µM (inactive); in the assay on OVCAR-8 it was 7.5 µM (inactive).

Take `COC1=C(OC)C(=O)c2cc(C)c(=O)c(C)cc2C1=O`: the GI50 in the assay with RXF 393 is 15.3 µM (inactive); in the assay on LXFL 529 it was 4.36 µM (inactive); with SNB-75, 18.4 µM (inactive); with ACHN, 14.8 µM (inactive); in the assay on UACC-257, 11.2 µM (inactive); in the assay on NCI/ADR-RES it was 17 µM (inactive). The GI50 in the assay with SNB-19 is 18.4 µM (inactive); with BT-549, 15.2 µM (inactive); with NCI-H460, 24.7 µM (inactive); with CCRF-CEM it was 2.45 µM (inactive); in the assay on MDA-MB-231, 7.94 µM (inactive); in the assay with PC-3 it was 20.3 µM (inactive). Besides, the GI50 with HL-60 is 2.82 µM (inactive); in the assay with A498, 24.2 µM (inactive); with M14 it was 16.9 µM (inactive); in the assay with MOLT-4, 2.27 µM (inactive); in the assay with SK-MEL-2, 17.3 µM (inactive); with SR it was 2.65 µM (inactive). The GI50 in the assay on OVCAR-8 is 17.3 µM (inactive); with MDA-MB-435 it was 1800 nM (inactive).

In the case of `CC(C)(C)OC(=O)NCCc1cccc2c1oc1c(CCC(=O)O)cccc12`, the GI50 in the assay on RXF 393 was > 100 µM (inactive); in the assay with LXFL 529, > 100 µM (inactive); in the assay on SNB-75 it was 95.9 µM (inactive); with ACHN, > 100 µM (inactive); in the assay on UACC-257 it was > 100 µM (inactive); in the assay on SNB-19 it was > 100 µM (inactive). The GI50 with NCI-H460, in the assay with CCRF-CEM, with HL-60, with A498, with M14 and in the assay with MOLT-4 was > 100 µM (inactive) throughout. Further, the GI50 with SK-MEL-2, in the assay on SR and in the assay on OVCAR-8 was > 100 µM (inactive) in each case.

Consider `C=C1CC2CC[C@@]34C[C@@H]5O[C@@H]6C(O[C@H]7CC[C@H](CC(=O)OC8[C@@H](C)C9OC%10C[C@]%11(C[C@@H]%12O[C@@]%13(C[C@@H](C)[C@@H]%12O%11)C[C@H](C)[C@@H]%11OC%12CC(C(O)CO)OC%12C[C@@H]%11O%13)OC%10CC9O[C@H]8C[C@H]8O[C@@H](CC[C@@H]1O2)C[C@@H](C)C8=C)O[C@@H]7[C@@H]6O3)C5O4` (stereo partly specified), for which the GI50 in the assay with RXF 393 was 0.000685 µM (active); with LXFL 529 it was 0.000564 µM (active); with SNB-75, 0.000434 µM (active); in the assay with ACHN it was 0.0038 µM (active); in the assay on UACC-257, 0.000262 µM (active); in the assay with NCI/ADR-RES it was 0.00471 µM (active). Also, the GI50 with SNB-19 was 0.00211 µM (active); in the assay on NCI-H460, 8.26e-05 µM (active); in the assay on CCRF-CEM it was 0.000977 µM (active); in the assay with HL-60, 0.000321 µM (active); with A498 it was 0.00197 µM (active); in the assay with M14, 0.00108 µM (active). For the same molecule, the GI50 in the assay on MOLT-4 was 0.00135 µM (active); with SK-MEL-2 it was 0.00125 µM (active); with SR, 0.000718 µM (active); in the assay with OVCAR-8, 0.00249 µM (active).

`CN(C)c1cccc(-c2cc(O)c3cc4c(cc3n2)OCO4)c1`: the GI50 is 0.241 µM (active) in the assay on RXF 393; 0.13 µM (active) with LXFL 529; 0.054 µM (active) in the assay on SNB-75; 0.378 µM (active) in the assay with ACHN; 0.916 µM (active) with UACC-257; 0.365 µM (active) in the assay with SNB-19. The GI50 in the assay with NCI-H460 is 0.278 µM (active); in the assay on CCRF-CEM it was 0.204 µM (active); with HL-60, 0.112 µM (active); in the assay with A498, 0.137 µM (active); in the assay with M14, 0.139 µM (active); in the assay with MOLT-4 it was 0.3 µM (active). Moreover, the GI50 in the assay with SK-MEL-2 is 0.221 µM (active); with SR, 0.708 µM (active); in the assay with OVCAR-8 it was 0.363 µM (active).
